Laboratory results taken from patent US20120220603A1, “SUBSTITUTED HETEROCYCLIC DERIVATIVES FOR THE TREATMENT OF PAIN AND EPILEPSY” (ZALICUS PHARMACEUTICALS LTD., priority 2009, published 2012).

Legend:
[1] = tested on: Rat SNL tactile allodynia; test: L5/L6 spinal nerve ligation (SNL) Chung pain model, tactile allodynia (von Frey); assay type: in vivo
Description: The Spinal Nerve Ligation is an animal model representing peripheral nerve injury generating a neuropathic pain syndrome. In this model experimental animals develop the clinical symptoms of tactile allodynia and hyperalgesia. L5/L6 Spinal nerve ligation (SNL) injury was induced using the procedure of Kim and Chung (Kim et al., Pain 50:355-363 (1992)) in male Sprague-Dawley rats (Harlan; Indianapolis, Ind.) weighing 200 to 250 grams.
Anaesthesia was induced with 2% isofluorane in O2 at 2 L/min and maintained with 0.5% isofluorane in O2. Rats were then shaved and aseptically prepared for surgeries. A 2 cm paraspinal incision was made at the level of L4-S2. L4/L5 was exposed by removing the transverse process above the nerves with a small rongeur. The L5 spinal nerve is the larger of the two visible nerves below the transverse process and lies closest to the spine. The L6 spinal nerve is located beneath the corner of the slope bone. A home-made glass Chung rod was used to hook L5 or L6 and a pre-made slip knot of 4.0 silk suture was placed on the tip of the rod just above the nerve and pulled underneath to allow for the tight ligation. The L5 and L6 spinal nerves were tightly ligated distal to the dorsal root ganglion. The incision was closed, and the animals were allowed to recover for 5 days.
Sham control rats underwent the same operation and handling as the experimental animals, but without SNL.
Prior to initiating drug delivery, baseline behavioural testing data is obtained. At selected times after infusion of the Test or Control Article behavioural data can then be collected again.
The assessment of tactile allodynia consisted of measuring the withdrawal threshold of the paw ipsilateral to the site of nerve injury in response to probing with a series of calibrated von Frey filaments (innocuous stimuli). Animals were acclimated to the suspended wire-mesh cages for 30 min before testing. Each von Frey filament was applied perpendicularly to the plantar surface of the ligated paw of rats for 5 sec. A positive response was indicated by a sharp withdrawal of the paw. For rats, the first testing filament is 4.31. Measurements were taken before and after administration of test articles. […] The protocol was repeated until three changes in behaviour were determined (“up and down” method) (Chaplan et al., J. Neurosci. Methods 53:55-63 (1994)). The 50% paw withdrawal threshold was determined as (10^[Xf+kδ])/10,000, where Xf=the value of the last von Frey filament employed, k=Dixon value for the positive/negative pattern, and S=the logarithmic difference between stimuli. The cut-off values for rats were no less than 0.2 g and no higher than 15 g (5.18 filament); for mice no less than 0.03 g and no higher than 2.34 g (4.56 filament). A significant drop of the paw withdrawal threshold compared to the pre-treatment baseline is considered tactile allodynia. […]

[2] = Mouse rotarod assay (minimal muscular or neurological impairment); assay type: in vivo; settings: mouse, in vivo, mice
Experimental: To assess a compound's undesirable side effects (toxicity), animals were monitored for overt signs of impaired neurological or muscular function. In mice, the rotarod procedure (Dunham and Miya, J. Am. Pharmacol. Assoc. 46:208-209 (1957)) is used to disclose minimal muscular or neurological impairment (MMI). When a mouse is placed on a rod that rotates at a speed of 6 rpm, the animal can maintain its equilibrium for long periods of time. The animal is considered toxic if it falls off this rotating rod three times during a 1-min period.

[3] = target: T1, CaV3.2 T-type Ca2+ channels expressed in HEK cells (Homo sapiens, UniProt O95180); test: CaV3.2 voltage-clamp electrophysiological assay (fast and slow inactivation); assay type: cell-based
T1 construct: expressed in transfected cells; host or cells: HEK cells
T1 sequence (O95180 whole entry): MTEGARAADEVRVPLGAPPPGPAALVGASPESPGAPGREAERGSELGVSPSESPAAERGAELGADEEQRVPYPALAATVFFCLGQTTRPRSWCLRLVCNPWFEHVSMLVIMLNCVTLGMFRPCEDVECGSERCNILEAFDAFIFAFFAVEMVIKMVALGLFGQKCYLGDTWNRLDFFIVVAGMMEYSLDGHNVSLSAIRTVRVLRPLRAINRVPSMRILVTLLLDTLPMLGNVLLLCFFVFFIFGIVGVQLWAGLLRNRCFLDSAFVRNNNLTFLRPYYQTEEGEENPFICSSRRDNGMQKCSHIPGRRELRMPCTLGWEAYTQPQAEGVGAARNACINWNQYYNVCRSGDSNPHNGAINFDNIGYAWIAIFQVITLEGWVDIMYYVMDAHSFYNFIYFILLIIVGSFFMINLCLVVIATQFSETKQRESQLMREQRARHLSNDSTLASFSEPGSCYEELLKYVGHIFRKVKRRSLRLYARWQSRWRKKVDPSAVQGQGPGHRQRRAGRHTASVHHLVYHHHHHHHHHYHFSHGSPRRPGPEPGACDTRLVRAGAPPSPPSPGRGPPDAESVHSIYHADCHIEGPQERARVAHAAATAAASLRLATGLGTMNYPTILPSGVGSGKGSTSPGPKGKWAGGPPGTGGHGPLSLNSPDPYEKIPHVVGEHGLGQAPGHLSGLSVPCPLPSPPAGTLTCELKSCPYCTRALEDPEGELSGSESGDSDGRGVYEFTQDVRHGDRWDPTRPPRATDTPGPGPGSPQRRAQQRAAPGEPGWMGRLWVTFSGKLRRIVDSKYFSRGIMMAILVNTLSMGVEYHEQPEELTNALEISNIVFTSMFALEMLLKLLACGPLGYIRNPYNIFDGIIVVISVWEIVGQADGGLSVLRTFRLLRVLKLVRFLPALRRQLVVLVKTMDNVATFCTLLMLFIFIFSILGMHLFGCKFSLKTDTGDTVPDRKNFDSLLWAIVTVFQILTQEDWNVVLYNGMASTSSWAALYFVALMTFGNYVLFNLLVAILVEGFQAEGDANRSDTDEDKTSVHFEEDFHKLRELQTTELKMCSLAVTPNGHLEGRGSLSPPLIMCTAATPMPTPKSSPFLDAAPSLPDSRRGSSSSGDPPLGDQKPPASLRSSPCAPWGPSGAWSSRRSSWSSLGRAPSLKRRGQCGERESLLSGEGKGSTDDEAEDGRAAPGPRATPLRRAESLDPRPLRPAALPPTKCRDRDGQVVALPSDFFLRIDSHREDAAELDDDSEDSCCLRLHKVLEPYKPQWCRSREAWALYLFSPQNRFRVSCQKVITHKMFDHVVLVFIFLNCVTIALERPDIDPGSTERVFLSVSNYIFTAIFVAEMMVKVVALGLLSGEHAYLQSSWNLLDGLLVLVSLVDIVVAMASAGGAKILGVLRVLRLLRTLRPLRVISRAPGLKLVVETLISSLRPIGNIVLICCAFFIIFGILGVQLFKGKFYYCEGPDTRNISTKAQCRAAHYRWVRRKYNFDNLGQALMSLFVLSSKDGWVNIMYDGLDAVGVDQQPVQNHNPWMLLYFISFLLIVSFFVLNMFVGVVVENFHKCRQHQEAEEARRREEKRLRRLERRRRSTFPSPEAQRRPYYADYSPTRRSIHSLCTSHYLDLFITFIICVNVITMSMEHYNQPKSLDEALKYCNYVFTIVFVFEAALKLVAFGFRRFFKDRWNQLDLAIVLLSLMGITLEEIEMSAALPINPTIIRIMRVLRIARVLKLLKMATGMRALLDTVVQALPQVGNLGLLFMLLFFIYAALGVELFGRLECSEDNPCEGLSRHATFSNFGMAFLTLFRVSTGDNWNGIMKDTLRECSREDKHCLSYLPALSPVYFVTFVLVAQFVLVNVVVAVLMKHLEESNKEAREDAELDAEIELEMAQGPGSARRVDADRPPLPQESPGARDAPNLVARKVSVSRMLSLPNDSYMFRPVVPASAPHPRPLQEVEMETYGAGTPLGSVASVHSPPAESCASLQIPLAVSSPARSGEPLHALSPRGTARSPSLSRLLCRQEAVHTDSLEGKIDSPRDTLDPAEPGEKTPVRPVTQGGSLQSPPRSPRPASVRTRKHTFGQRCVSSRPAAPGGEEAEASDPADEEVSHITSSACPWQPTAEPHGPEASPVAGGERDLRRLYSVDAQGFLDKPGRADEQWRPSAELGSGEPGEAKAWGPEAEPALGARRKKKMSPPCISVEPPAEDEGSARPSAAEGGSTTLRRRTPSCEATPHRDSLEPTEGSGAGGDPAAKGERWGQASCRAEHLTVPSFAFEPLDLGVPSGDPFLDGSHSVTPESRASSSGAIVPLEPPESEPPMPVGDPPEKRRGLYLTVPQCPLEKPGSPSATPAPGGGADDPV
Description: Prior to recording currents from CaV3.2 T-type Ca^2+ channels expressed in HEK cells, the culture media was replaced with extracellular solution (ECS) containing (in mM): 142 CsCl, 10 D-glucose, 2 CaCl2, 1 MgCl2, 10 HEPES, pH adjusted to 7.4 with CsOH. Borosilicate glass patch pipettes, pulled on a P-97 micropipette puller (Sutter Instruments, Novato, Calif.) with typical resistances of 2-4 MW, were backfilled with intracellular solution containing (in mM): 126.5 Cs-methanesulphonate, 2 MgCl2, 10 HEPES, 11 EGTA, 2 Na-ATP, pH adjusted to 7.3 CsOH. […] were recorded in the whole-cell configuration at room temperature (˜21° C.) using an Axopatch 200B (Molecular Devices, Sunnyvale, Calif.) patch-clamp amplifier. Recordings were low-pass filtered at 1 kHz (−3 dB 4-pole Bessel filter), digitized at 2 kHz with a Digidata 1322A interface (Molecular Devices), and acquired using pClamp 9.2 (Molecular Devices). No leak subtraction was used. Test compounds, prepared as 30 mM stock solutions in DMSO and diluted in extracellular buffer, were applied through a gravity driven multi-barrelled array of capillaries (24 gauge) connected to reservoirs controlled by solenoid valves. The effects of compounds on CaV3.2 slow and fast inactivation were evaluated using four different voltage protocols. The voltage dependence of fast and slow channel inactivation was examined using a two pulse protocol. Data were analyzed and fitted using OriginPro v.7.5 (OriginLab, Northampton, Mass.) software.

Structure (SMILES): O=C(CN1CCNCC1=O)Nc1cc(C(F)(F)F)cc(C(F)(F)F)c1 [Compound 1, N-(3,5-bis(trifluoromethyl)phenyl)-2-(2-oxopiperazin-1-yl)acetamide]
- Rat SNL Tactile Allodynia (% Antiallodynia) ([1]; 1 hour): 52%
- Rat SNL Tactile Allodynia (% Antiallodynia) ([1]; 2 hours): 55%
- Rat SNL Tactile Allodynia (% Antiallodynia) ([1]; 4 hours): 37%
- TD50 [2]: 300 mg/kg

Structure (SMILES): O=C1CN(CC(=O)Nc2cc(C(F)(F)F)cc(C(F)(F)F)c2)CCN1 [Compound 9, N-(3,5-bis(trifluoromethyl)phenyl)-2-(3-oxopiperazin-1-yl)acetamide]
- Fraction of current recovered at 5.1 s interval ([3]; 5.1 s interval): *0.80
- Fraction current remaining at −40 mV ([3]; at −40 mV): **0.32
- V1/2 slow inactivation ([3]; voltage-dependence of half inactivation, HEK cells, whole-cell): **−83 mV
- Rat SNL Tactile Allodynia (% Antiallodynia) ([1]; 1 hour): 36%
- Anti-allodynia in rat SNL tactile allodynia (in words) ([1]; at 60 minutes compared to baseline and post-SNL): significant anti-allodynia
